Tests used:
Adenosine receptor A1 = biological target: T1, Adenosine receptor A1 (Homo sapiens, UniProt P30542)
T1 sequence (P30542 whole entry): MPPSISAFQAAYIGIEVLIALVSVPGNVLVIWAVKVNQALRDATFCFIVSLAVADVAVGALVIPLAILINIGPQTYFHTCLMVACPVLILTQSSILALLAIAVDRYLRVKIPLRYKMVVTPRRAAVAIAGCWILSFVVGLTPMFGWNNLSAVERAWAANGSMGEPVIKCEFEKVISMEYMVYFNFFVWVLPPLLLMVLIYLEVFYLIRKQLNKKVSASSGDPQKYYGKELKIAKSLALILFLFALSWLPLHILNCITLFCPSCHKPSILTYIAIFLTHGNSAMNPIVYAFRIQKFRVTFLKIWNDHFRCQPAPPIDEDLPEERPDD

[1] = biological target: T2, Cholecystokinin receptor type A (Homo sapiens, UniProt P32238)
T2 sequence (P32238 whole entry): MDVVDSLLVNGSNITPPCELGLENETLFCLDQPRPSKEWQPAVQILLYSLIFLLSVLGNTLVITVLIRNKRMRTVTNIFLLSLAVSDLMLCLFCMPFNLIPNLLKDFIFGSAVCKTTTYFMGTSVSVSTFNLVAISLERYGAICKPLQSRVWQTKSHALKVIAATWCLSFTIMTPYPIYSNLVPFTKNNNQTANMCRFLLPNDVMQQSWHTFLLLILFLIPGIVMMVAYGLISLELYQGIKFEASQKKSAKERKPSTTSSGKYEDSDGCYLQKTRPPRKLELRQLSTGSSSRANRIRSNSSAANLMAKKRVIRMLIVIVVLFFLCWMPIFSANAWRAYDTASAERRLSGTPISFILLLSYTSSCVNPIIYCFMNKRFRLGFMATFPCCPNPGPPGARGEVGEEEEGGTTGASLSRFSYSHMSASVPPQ

Histamine H3 receptor = Histamine H3 receptor (Homo sapiens, UniProt Q9Y5N1)
Chain of Histamine H3 receptor (Q9Y5N1 whole entry): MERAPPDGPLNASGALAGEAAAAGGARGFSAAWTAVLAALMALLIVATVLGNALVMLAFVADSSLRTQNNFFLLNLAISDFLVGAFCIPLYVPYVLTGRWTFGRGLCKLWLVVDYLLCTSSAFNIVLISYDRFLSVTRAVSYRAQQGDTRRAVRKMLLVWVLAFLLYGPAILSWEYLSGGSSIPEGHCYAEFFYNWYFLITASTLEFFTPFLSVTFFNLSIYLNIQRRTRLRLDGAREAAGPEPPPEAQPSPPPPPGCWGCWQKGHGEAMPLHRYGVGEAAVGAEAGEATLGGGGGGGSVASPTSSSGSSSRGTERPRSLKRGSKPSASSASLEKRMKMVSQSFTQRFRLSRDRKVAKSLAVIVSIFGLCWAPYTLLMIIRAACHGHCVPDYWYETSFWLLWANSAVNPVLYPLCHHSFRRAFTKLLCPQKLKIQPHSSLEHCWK

Motilin receptor = Motilin receptor (Homo sapiens, UniProt O43193)
Chain of Motilin receptor (O43193 whole entry): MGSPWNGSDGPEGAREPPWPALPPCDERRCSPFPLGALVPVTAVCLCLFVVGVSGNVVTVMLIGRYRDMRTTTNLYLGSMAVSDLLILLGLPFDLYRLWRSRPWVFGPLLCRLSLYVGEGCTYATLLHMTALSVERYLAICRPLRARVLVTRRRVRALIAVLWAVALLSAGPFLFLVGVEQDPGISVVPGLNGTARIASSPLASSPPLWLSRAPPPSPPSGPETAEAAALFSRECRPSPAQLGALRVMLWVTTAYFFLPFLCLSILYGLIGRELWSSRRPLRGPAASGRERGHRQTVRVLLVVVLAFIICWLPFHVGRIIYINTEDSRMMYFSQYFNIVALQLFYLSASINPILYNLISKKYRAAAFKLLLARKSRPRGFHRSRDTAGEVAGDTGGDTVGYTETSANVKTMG

[2] = biological target: 5-hydroxytryptamine receptor 2B (Homo sapiens, UniProt P41595); type: functional, cell-based
Chain of 5-hydroxytryptamine receptor 2B (P41595 whole entry): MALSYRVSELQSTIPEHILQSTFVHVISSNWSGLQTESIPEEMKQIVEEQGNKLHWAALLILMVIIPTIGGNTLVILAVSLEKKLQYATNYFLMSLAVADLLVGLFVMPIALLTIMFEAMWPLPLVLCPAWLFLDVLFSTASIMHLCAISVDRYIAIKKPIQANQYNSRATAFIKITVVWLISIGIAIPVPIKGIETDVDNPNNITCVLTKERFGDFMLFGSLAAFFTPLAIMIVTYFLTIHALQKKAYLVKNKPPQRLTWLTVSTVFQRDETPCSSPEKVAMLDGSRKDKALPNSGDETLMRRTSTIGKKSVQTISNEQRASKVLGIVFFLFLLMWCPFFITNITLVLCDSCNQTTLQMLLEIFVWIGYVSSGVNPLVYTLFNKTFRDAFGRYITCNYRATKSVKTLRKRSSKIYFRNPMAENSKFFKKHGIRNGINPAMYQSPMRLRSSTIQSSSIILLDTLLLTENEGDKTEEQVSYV

Histamine H2 receptor = Histamine H2 receptor (Homo sapiens, UniProt P25021); type: functional, cell-based
Chain of Histamine H2 receptor (P25021 whole entry): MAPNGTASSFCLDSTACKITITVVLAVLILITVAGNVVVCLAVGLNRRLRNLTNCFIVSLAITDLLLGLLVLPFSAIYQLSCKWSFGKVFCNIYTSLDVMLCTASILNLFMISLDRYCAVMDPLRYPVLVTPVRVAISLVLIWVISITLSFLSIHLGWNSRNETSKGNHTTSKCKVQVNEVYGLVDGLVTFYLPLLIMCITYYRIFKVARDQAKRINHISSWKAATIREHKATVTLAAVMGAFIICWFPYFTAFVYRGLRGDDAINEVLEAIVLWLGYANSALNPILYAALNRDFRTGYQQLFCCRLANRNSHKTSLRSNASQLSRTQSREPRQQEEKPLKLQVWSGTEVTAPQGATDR

[3] = biological target: T3, Alpha-2A adrenergic receptor (Homo sapiens, UniProt P08913); type: functional, cell-based
T3 sequence (P08913 whole entry): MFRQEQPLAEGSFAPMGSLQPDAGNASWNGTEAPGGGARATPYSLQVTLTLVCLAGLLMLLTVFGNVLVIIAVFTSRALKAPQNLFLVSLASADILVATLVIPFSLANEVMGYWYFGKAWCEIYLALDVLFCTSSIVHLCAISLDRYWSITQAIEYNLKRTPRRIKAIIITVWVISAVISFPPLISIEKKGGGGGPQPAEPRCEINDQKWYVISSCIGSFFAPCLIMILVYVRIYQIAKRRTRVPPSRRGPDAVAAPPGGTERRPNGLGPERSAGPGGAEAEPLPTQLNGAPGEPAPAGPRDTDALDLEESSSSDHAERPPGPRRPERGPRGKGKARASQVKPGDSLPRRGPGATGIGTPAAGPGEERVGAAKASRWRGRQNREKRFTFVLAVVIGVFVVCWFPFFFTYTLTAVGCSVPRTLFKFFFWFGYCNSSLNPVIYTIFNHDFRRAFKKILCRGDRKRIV

[4] = biological target: T4, Neuropeptide Y receptor type 1 (Homo sapiens, UniProt P25929)
T4 sequence (P25929 whole entry): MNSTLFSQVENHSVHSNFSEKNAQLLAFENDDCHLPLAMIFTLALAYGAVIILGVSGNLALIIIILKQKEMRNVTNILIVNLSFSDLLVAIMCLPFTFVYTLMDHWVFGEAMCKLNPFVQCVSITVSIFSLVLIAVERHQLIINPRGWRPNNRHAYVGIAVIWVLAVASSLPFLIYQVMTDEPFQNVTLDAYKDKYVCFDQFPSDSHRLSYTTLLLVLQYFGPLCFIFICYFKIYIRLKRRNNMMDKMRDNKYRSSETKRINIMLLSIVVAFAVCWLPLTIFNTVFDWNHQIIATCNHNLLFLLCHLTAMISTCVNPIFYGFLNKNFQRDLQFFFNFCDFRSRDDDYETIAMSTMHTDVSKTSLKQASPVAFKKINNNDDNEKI

Glucocorticoid receptor = biological target: T5, Glucocorticoid receptor (Homo sapiens, UniProt P04150)
T5 sequence (P04150 whole entry): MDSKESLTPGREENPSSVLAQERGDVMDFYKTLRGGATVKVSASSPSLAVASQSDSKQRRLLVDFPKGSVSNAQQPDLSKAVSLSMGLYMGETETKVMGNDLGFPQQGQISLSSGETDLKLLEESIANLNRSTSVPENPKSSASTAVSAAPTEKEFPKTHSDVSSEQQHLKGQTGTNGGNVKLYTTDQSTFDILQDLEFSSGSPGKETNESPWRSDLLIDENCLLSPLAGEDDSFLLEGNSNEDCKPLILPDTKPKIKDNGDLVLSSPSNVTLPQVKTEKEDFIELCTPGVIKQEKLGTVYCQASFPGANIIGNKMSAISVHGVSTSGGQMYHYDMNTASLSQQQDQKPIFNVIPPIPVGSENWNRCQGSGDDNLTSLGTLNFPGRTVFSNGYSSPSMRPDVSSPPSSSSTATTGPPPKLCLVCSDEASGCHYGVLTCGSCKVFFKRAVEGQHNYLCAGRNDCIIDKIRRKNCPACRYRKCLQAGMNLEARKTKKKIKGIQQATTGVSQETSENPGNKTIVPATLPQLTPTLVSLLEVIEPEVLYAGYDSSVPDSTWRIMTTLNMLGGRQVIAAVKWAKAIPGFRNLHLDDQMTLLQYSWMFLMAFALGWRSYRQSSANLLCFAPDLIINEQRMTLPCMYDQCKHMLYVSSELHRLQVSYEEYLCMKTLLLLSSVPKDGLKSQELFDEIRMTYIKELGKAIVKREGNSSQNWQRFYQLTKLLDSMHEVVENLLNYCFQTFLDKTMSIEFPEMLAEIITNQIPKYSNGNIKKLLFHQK

[5] = biological target: Beta-1 adrenergic receptor (Homo sapiens, UniProt P08588); type: functional
Chain of Beta-1 adrenergic receptor (P08588 whole entry): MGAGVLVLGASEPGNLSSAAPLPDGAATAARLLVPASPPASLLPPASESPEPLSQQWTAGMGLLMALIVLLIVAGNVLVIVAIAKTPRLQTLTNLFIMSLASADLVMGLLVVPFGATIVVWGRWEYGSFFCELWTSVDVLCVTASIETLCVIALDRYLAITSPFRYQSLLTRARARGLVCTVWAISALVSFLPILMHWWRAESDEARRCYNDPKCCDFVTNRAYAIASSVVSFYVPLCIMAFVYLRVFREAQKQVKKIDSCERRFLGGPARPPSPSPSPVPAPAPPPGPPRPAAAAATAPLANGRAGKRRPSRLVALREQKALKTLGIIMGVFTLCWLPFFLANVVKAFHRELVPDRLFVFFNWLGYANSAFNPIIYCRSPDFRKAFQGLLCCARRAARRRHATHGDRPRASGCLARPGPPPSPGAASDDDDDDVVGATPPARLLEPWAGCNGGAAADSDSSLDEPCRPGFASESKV

Adenosine receptor A2a = Adenosine receptor A2a (Homo sapiens, UniProt P29274)
Chain of Adenosine receptor A2a (P29274 whole entry): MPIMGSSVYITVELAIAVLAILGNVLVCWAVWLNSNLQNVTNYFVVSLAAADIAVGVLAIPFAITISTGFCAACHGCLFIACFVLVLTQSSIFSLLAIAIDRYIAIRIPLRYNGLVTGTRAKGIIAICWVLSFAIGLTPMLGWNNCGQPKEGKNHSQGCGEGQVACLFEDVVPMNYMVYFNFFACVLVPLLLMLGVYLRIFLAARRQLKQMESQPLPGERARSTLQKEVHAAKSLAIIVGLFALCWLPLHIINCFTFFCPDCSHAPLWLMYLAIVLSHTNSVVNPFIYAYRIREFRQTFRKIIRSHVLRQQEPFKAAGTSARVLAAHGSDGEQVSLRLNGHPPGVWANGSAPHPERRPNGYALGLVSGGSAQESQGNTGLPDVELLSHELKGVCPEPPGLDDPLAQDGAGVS

[6] = biological target: Beta-2 adrenergic receptor (Homo sapiens, UniProt P07550)
Chain of Beta-2 adrenergic receptor (P07550 whole entry): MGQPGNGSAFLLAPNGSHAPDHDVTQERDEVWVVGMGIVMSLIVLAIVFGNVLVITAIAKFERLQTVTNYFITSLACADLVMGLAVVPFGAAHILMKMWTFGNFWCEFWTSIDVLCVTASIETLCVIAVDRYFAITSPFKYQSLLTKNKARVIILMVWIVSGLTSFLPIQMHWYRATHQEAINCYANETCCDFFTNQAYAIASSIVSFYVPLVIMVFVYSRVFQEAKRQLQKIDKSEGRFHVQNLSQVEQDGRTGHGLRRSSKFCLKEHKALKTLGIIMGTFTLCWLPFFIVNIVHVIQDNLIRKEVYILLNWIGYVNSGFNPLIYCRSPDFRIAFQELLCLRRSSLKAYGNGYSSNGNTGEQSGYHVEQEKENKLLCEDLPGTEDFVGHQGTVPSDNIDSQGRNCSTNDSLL

D(3) dopamine receptor = D(3) dopamine receptor (Homo sapiens, UniProt P35462)
Chain of D(3) dopamine receptor (P35462 whole entry): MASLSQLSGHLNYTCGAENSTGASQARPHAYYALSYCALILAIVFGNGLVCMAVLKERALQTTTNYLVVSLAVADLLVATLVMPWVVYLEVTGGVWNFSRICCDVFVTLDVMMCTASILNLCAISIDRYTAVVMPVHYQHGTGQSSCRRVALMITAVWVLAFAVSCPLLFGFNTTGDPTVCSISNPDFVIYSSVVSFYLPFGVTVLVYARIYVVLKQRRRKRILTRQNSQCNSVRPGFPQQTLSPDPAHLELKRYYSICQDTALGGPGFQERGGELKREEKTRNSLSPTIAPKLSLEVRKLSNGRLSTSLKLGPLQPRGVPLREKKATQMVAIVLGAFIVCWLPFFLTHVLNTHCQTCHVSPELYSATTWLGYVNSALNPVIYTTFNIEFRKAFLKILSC

[7] = biological target: Gamma-aminobutyric acid receptor subunit alpha-1 (Rattus norvegicus, UniProt P62813)
Chain of Gamma-aminobutyric acid receptor subunit alpha-1 (P62813 whole entry): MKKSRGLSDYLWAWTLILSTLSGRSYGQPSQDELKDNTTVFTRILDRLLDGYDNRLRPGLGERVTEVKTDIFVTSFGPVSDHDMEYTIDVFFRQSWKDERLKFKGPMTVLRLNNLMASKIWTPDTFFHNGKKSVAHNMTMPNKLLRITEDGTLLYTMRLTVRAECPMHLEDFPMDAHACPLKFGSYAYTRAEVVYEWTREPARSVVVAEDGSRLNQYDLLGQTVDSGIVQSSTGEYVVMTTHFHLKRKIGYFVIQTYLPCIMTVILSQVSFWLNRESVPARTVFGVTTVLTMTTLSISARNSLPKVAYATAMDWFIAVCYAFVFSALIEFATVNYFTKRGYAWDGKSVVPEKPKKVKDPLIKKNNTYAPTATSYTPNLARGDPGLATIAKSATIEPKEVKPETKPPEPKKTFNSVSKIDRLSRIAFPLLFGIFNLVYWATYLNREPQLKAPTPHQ
Further: assay procedure not described here.

| Structure (SMILES) | AC50 (Adenosine receptor A1) | AC50 [1] | AC50 (Histamine H3 receptor) | AC50 (Motilin receptor) | AC50 [2] | AC50 (Histamine H2 receptor) | AC50 [3] | AC50 [4] | AC50 (Glucocorticoid receptor) | AC50 [5] | AC50 (Adenosine receptor A2a) | AC50 [6] | AC50 (D(3) dopamine receptor) | AC50 [7] |
| --- | --- | --- | --- | --- | --- | --- | --- | --- | --- | --- | --- | --- | --- | --- |
| CO/N=C(\C(=O)N[C@@H]1C(=O)N2C(C(=O)O)=CCS[C@H]12)c1csc(N)n1 [CEFTIZOXIME] | > 30 µM | > 30 µM | > 30 µM | > 30 µM | > 30 µM | > 30 µM | > 30 µM | > 30 µM | > 30 µM | > 30 µM | > 30 µM |  |  |  |
| CCc1nc(N)nc(N)c1-c1ccc(Cl)cc1 [PYRIMETHAMINE] | > 10 µM | > 10 µM |  | > 10 µM | 11.3 µM | > 30 µM | 9.8 µM | > 10 µM | > 10 µM | > 10 µM | > 10 µM | > 10 µM | > 30 µM | > 10 µM |
| O=c1[nH]c2ccccc2n1CCCN1CCN(C(c2ccccc2)c2ccccc2)CC1 [OXATOMIDE] | > 30 µM | > 30 µM | > 30 µM | 12 µM |  | > 30 µM | > 30 µM | > 30 µM | > 30 µM | > 30 µM | > 30 µM |  | 0.13 µM | > 30 µM |
| NS(=O)(=O)c1cc2c(cc1Cl)N=C(CSCc1ccccc1)NS2(=O)=O [BENZTHIAZIDE] | > 10 µM | > 10 µM |  | > 10 µM | > 10 µM | > 30 µM | > 10 µM | > 10 µM | > 30 µM | > 10 µM | > 10 µM | > 10 µM | > 30 µM | > 10 µM |
| Cc1cc(C)nc(NS(=O)(=O)c2ccc(N)cc2)n1 [SULFAMETHAZINE] | > 10 µM | > 10 µM |  | > 10 µM | > 10 µM | > 30 µM | > 10 µM | > 10 µM | > 10 µM | > 10 µM | > 10 µM | > 10 µM | > 30 µM | > 10 µM |
| CCCC(C)(COC(N)=O)COC(N)=O [MEPROBAMATE] | > 10 µM | > 10 µM |  | > 10 µM | > 10 µM | > 30 µM | > 10 µM | > 10 µM | > 10 µM | > 10 µM | > 10 µM | > 10 µM | > 30 µM | > 10 µM |
| CO/N=C(\C(=O)N[C@@H]1C(=O)N2C(C(=O)O)=C(CSc3nc(=O)c(=O)[nH]n3C)CS[C@H]12)c1csc(N)n1 [CEFTRIAXONE] | > 30 µM | > 30 µM | > 30 µM | > 30 µM | > 30 µM | > 30 µM | > 30 µM | > 30 µM | > 30 µM | > 30 µM | > 30 µM |  | > 30 µM |  |
| CC(C)(C)NCC(O)c1ccccc1Cl (stereo not given) [TULOBUTEROL] | > 30 µM | > 30 µM | > 30 µM | > 30 µM | > 30 µM | > 30 µM | > 30 µM | > 30 µM | > 30 µM |  | > 30 µM |  | > 30 µM | > 30 µM |
| CCOC(=O)[C@@H](N)Cc1ccc(-c2cc(O[C@H](c3ccc(Cl)cc3-n3ccc(C)n3)C(F)(F)F)nc(N)n2)cc1 [TELOTRISTAT ETHYL] | > 30 µM | 10 µM | > 30 µM |  | > 30 µM | > 30 µM | > 30 µM | > 30 µM | 23 µM | > 30 µM | > 30 µM |  | > 30 µM | > 30 µM |
| COc1cc2[nH]c(C)c(CCN3CCN(c4ccccc4)CC3)c2cc1OC [OXYPERTINE] | > 30 µM | > 30 µM | > 30 µM | > 30 µM | 0.12 µM | > 30 µM | > 30 µM | > 30 µM | > 30 µM | 26 µM | > 30 µM |  | > 10 µM | > 30 µM |
| COc1cc(C(=O)OCc2cccc(COC(=O)c3cc(OC)c(OC)c(OC)c3)n2)cc(OC)c1OC [PIROZADIL] | > 30 µM | > 30 µM | > 30 µM | > 30 µM | > 30 µM | > 30 µM | > 30 µM | > 30 µM | > 30 µM | > 30 µM | > 30 µM |  | > 30 µM | > 30 µM |
| O=C(NCCO[N+](=O)[O-])c1cccnc1 [NICORANDIL] | > 30 µM | > 30 µM | > 30 µM | > 30 µM | > 30 µM | > 30 µM | > 30 µM | > 30 µM | > 30 µM | > 30 µM | > 30 µM |  | > 30 µM | > 30 µM |
| C=CCN1CCc2nc(N)sc2CC1 [TALIPEXOLE] | > 30 µM | > 30 µM | 3.3 µM | > 30 µM | > 30 µM | > 30 µM | 0.083 µM | > 30 µM | > 30 µM | > 30 µM | > 30 µM |  | 0.48 µM | > 30 µM |
| c1ccc(C2(N3CCCCC3)CCCCC2)cc1 [PHENCYCLIDINE] | > 30 µM | > 30 µM | > 30 µM | > 30 µM | > 30 µM | > 30 µM | > 30 µM | > 30 µM | > 30 µM | > 30 µM | > 30 µM |  | > 30 µM |  |
